Experimental data taken from patent publication EP4745134A1 (Jiangsu Yahong Meditech Co., Ltd., priority 2023, dated 2025).
Read-outs that look alike come from different tables or passages of the source.

Assays:
[1] = target: PRMT5-MTA (Homo sapiens, UniProt O14744); assay: Enzymatic inhibitory activity against PRMT5-MTA (AlphaScreen); assay type: biochemical
Procedure, shortened: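 PRMT5/[…] (1 nM) was preincubated for 30 min at room temperature with 1 µM […] and 2.5 µM SAM, then exposed to compound (10-point, 3-fold from 1000 nM) for 15 min at 23 °C. Histone H4 substrate (5 nM) was added and reacted for 45 min at 23 °C. Symmetric dimethyl-R3 H4 was detected by AlphaScreen and IC50 calculated.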

[2] = test system: HCT116 MTAP KO cells; assay: Inhibitory activity against cell proliferation (CellTiter Glo, 6 days), HCT116 MTAP KO; assay type: cell-based; details: for IC50: Homo sapiens, HCT-116, 144 h, HCT116 MTAP KO cells, 6 days, CellTiter Glo, read-out: HCT116 MTAP KO IC50; for Selectivity HCT 116-WT/ HCT116 MTAP KO: ratio of IC50 HCT116-WT / HCT116 MTAP KO
Procedure, shortened: (§1)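 Cells were seeded at 250 per well in McCoy's 5A with 10% FBS and left overnight at 37°C, 5% CO2. Compounds were added as 8-point, 4-fold dilutions from 10000 nM, with DMSO-only controls, for 6 days. IC50 values came from CellTiter Glo luminescence.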

[3] = test system: HCT116-WT cells; assay: Inhibitory activity against cell proliferation (CellTiter Glo, 6 days), HCT116-WT; assay type: cell-based; details: 144 h, HCT116-WT cells, 6 days, CellTiter Glo; read-out: HCT116-WT IC50
Procedure, shortened: as §1

Sequence of PRMT5-MTA (O14744 whole entry): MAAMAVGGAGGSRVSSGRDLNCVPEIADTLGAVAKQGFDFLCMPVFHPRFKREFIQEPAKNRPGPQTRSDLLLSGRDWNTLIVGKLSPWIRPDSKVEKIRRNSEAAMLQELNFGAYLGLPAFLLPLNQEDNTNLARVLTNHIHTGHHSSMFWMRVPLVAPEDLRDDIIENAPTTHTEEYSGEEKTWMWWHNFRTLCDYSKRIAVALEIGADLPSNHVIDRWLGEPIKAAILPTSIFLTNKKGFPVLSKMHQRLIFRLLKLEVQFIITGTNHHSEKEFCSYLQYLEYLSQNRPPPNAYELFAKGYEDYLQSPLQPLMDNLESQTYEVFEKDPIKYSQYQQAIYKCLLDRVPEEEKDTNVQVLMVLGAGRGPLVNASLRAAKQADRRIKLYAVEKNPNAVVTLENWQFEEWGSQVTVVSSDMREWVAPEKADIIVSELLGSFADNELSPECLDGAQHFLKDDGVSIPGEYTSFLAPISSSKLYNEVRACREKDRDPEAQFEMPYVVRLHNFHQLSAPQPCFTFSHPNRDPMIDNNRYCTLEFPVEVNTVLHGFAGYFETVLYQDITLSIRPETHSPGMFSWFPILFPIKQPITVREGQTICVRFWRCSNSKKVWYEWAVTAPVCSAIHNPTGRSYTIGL
Sequence of PRMT5-MTA (Q9BQA1 whole entry partner): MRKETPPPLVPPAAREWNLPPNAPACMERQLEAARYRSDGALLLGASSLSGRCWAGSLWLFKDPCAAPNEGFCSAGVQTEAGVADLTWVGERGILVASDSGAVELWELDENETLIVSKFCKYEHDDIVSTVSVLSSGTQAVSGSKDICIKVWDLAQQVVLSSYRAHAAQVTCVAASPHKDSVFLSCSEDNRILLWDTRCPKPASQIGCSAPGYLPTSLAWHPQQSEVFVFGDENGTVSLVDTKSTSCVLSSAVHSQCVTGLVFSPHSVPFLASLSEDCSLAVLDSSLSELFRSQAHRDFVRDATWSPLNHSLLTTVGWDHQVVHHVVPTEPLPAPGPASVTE

| SMILES | IC50 ([1]; read-out: IC50) [nM] | IC50 [2] [nM] | Selectivity HCT 116-WT/ HCT116 MTAP KO [2] | IC50 [3] [nM] | IC50 [1] [nM] |
| --- | --- | --- | --- | --- | --- |
| Cc1cc2cc(C(=O)N(Cc3ccc(-c4scnc4CO)cn3)N(C)c3ncccn3)ccc2nc1N [Example 236, 2-amino-N-((5-(4-(hydroxymethyl)thiazo 1-5-yl)pyridin-2-yl)methyl)-N',3-dimethyl -N'-(pyrimidin-2-yl)quinoline-6-carbohyd razide] | 6 | 26 | 42.85 | 1110 | – |
| Cc1cc2nc(N)c3cnn(C)c3c2cc1C(=O)N1CC(C)CN1c1ncc(-c2cnc3c(cnn3C)c2)cc1F (stereo not drawn) [Example 479, (4-amino-1,7-dimethyl-1H-pyrazolo[4,3-c]quinolin-8-yl)(2-(3-fluoro-5-(1-methyl-1H-pyrazolo[3,4-b]pyridin-5-yl)pyridin-2-yl)-4-methylpyrazolidin-1-yl)methanone] | 5.3 | 32 | 39.66 | 1270 | – |
| Cc1cc2cc(C(=O)N(Cc3ccc(-c4cc[nH]c4)cn3)N(C)c3ncccn3)ccc2nc1N [Example 191, N-((5-(1H-pyrrol-3-yl)pyridin-2-yl)methyl)-2-amino-N',3-dimethyl-N'-(pyrimidin-2-yl)quinoline-6-carbohydrazide] | 2.5 | 112 | 20.90 | 2340 | – |
| Cn1ncc2c(N)nc3cc(Cl)c(C(=O)N4CC(CF)CN4c4ncccc4F)cc3c21 (stereo not drawn) [Example 359, (4-amino-7-chloro-1-methyl-1H-pyrazolo[4,3-c]quinolin-8-yl)(4-(fluoromethyl)-2-(3-fluoropyridin-2-yl)pyrazolin-1-yl)methanone] | – | 50 | 23.50 | 1180 | 2.7 |
| Cc1cc2nc(N)c3cnn(C)c3c2cc1C(=O)N1CC(C)CN1c1ncc(C#CCO)cc1F (stereo not drawn) [Example 492, (4-amino-1,7-dimethyl-1H-pyrazolo[4,3-c]quinolin-8-yl)(2-(3-fluoro-5-(3-hydroxyprop-1-yn-1-yl)pyridin-2-yl)-4-methylpyrazolidin-1-yl)methanone] | 3.3 | 37 | 52.49 | 1940 | – |
| Cc1cc2cc(C(=O)N(Cc3ccc(-c4scnc4C4CC4)cn3)N(c3ncccn3)C3CC3)ccc2nc1N [Example 240, 2-amino-N'-cyclopropyl-N-((5-(4-cyclopropylthiazol-5-yl)pyridin-2-yl)methyl)-3-methyl-N'-(pyrimidin-2-yl)quinoline-6-carbohydrazide] | 3.9 | 36 | 11.00 | 396 | – |
| Cc1cc2cc(C(=O)N(Cc3ccc(C(F)(F)F)cn3)N(C)c3ncccn3)ncc2nc1N [Example 306, 2-amino-N',3-dimethyl-N'-(pyrimidin-2-yl)-N-((5-(trifluoromethyl)pyridin-2-yl)methyl) -1,7-naphthyridine-6-carbohydrazide] | 4.9 | 319 | 12.15 | 3880 | – |
| Cc1cc2cc(C(=O)N(Cc3ccc(Br)cc3F)N(C)c3ncccn3)ccc2nc1N [Example 84, 2-amino-N-(4-bromo-2-fluorobenzyl)-N', 3-dimethyl-N'-(pyrimidin-2-yl)quinoline-6-carbohydrazide] | 3.4 | 58 | 28.17 | 1630 | – |
| Cc1cc2nc(N)c3cnn(C)c3c2cc1C(=O)N1CC(C(F)(F)F)CN1c1ncccc1F (stereo not drawn) [Example 350, (4-amino-1,7-dimethyl-1H-pyrazolo[4,3-c]quinolin-8-yl)(2-(3-fluoropyridin-2-yl)-4-(trifluoromethyl)pyrazolidin-1-yl)methanone] | 3.5 | 29 | 35.38 | 1030 | – |
| Cc1cc2cc(C(=O)N(Cc3ccc(C4CCOC4)cn3)N(C)c3ncccn3)ccc2nc1N (stereo not drawn) [Example 217, 2-amino-N',3-dimethyl-N'-(pyrimidin-2-yl)-N-((5-(tetrahydrofuran-3-yl)pyridin-2-yl)methyl)quinoline-6-carbohydrazide] | 2.9 | 70 | 42.11 | 2950 | – |
| Cc1cc2nc(N)c3cnn(C)c3c2cc1C(=O)N1CC(C)CN1c1ncc(-c2cccnc2)cc1F (stereo not drawn) [Example 484, (4-amino-1,7-dimethyl-1H-pyrazolo[4,3-c]quinolin-8-yl)(2-(5-fluoro-[3,3'-bipyridine]-6-yl)-4-methylpyrazolidin-1-yl)metha none] | 6.4 | 15 | 55.73 | 836 | – |
| Cc1cc2cc(C(=O)N(Cc3ccc(-c4nncs4)cn3)N(c3ncccn3)C3CC3)ccc2nc1N [Example 250, N-((5-(1,3,4-thiadiazol-2-yl)pyridin-2-yl)methyl)-2-amino-N'-cyclopropyl-3-methyl-N'-(pyrimidin-2-yl)quinoline-6-carbohy drazide] | 3.7 | 41 | 20.00 | 820 | – |
| Cc1cc2cc(C(=O)N(Cc3ccc(N4CCC(F)(F)C4)cn3)N(C)c3ncccn3)ccc2nc1N [Example 224, 2-amino-N-((5-(3,3-difluoropyrrolidin-1-yl)pyridin-2-yl)methyl)-N',3-dimethyl-N'-(pyrimidin-2-yl)quinoline-6-carbohydrazide] | 16 | 470 | – | > 10000 | – |
| Cn1ncc2c(N)nc3cc(Cl)c(C(=O)N4CC5(CN4c4ncc(Cl)cc4F)CC(F)(F)C5)cc3c21 [Example 412, (4-amino-7-chloro-1-methyl-1H-pyrazolo [4,3-c]quinolin-8-yl)(7-(5-chloro-3-fluoropyridin-2-yl)-2,2-difluoro-6,7-diazaspiro[3.4]octan-6-yl)methanone] | 6.2 | 10 | 17.90 | 179 | – |
| Cc1cc2nc(N)c3cnn(C)c3c2cc1C(=O)N1CC(C)CN1c1ncc(-c2cnn(C(F)(F)F)c2)cc1F (stereo not drawn) [Example 472, (4-amino-1,7-dimethyl-1H-pyrazolo[4,3-c]quinolin-8-y1)(2-(3-fluoro-5-(1-(trifluor omethyl)-1H-pyrazol-4-yl)pyridin-2-yl)-4-methylpyrazolidin-1-yl)methanone] | 4.6 | 30 | 32.37 | 971 | – |
| Cc1cc2cc(C(=O)N(Cc3ccc(-c4cnsc4)cn3)N(C)c3ncccn3)ccc2nc1N [Example 157, 2-amino-N-((5-(isothiazol-4-yl)pyridin-2-yl)methyl)-N',3-dimethyl-N'-(pyrimidin-2-yl)quinoline-6-carbohydrazide] | 6.9 | 14 | 25.79 | 361 | – |
| Cc1cc2cc(C(=O)N(Cc3ccc(-c4ccnnc4)cn3)N(C)c3ncccn3)ccc2nc1N [Example 220, 2-amino-N',3-dimethyl-N-((5-(pyridazin-4-yl)pyridin-2-yl)methyl)-N'-(pyrimidin-2-yl) quinoline-6-carbohydrazide] | 1.2 | 23 | 17.61 | 405 | – |
| Cn1ncc2c(N)nc3cc(Cl)c(C(=O)N4CC(F)(F)CN4c4ncc(F)cc4F)cc3c21 [Example 458, (4-amino-7-chloro-1-methyl-1H-pyrazolo [4,3-c]quinolin-8-yl)(2-(3,5-difluoropyridin-2-yl)-4,4-difluoropyrazolidin-1-yl)met hanone] | 5.1 | 15 | 24.73 | 371 | – |
| CCOc1ccc(CN(C(=O)c2ccc3nc(N)c(C)cc3c2)N(C)c2ncccn2)nc1 [Example 264, 2-amino-N-((5-ethoxypyridin-2-yl)methyl)-N',3-dimethyl-N'-(pyrimidin-2-yl)quin oline-6-carbohydrazide] | 1 | 138 | 17.97 | 2480 | – |
| Cc1cc2cc(C(=O)N(Cc3ccc(C(F)(F)F)nn3)N(C)c3ncccn3)ccc2nc1N [Example 124, 2-amino-N',3-dimethyl-N'-(pyrimidin-2-yl)-N-((6-(trifluoromethyl)pyridazin-3-yl)methyl)quinoline-6-carbohydrazide] | 5.4 | 220 | 29.33 | 6450 | – |
| Cn1ncc2c(N)nc3cc(Cl)c(C(=O)N4CC5(CN4c4cccc(F)n4)CC(F)(F)C5)cc3c21 [Example 414, (4-amino-7-chloro-1-methyl-1H-pyrazolo [4,3-c]quinolin-8-yl)(2,2-difluoro-7-(6-fluoropyridin-2-yl)-6,7-diazaspiro[3.4]octan-6-yl)methanone] | 6.2 | 18 | 16.94 | 305 | – |
| CN(c1ncccn1)N(Cc1ccc(-c2cnn(C(F)(F)F)c2)cn1)C(=O)c1ccc2nc(N)c(CO)cc2c1 [Example 322, 2-amino-3-(hydroxymethyl)-N'-methyl-N '-(pyrimidin-2-yl)-N-((5-(1-(trifluoromethyl)-1H-pyrazol-4-yl)pyridin-2-yl)methyl) quinoline-6-carbohydrazide] | 4.4 | 268 | 16.31 | 4370 | – |
